According to US6534524B1, “Indazole compounds and pharmaceutical compositions for inhibiting protein kinases, and methods for their use” (Agouron Pharmaceuticals, Inc., priority 1999, dated 2003):

System: human umbilical vein endothelial cells (HUVEC)
Test: HUVEC proliferation assay (VEGF-stimulated, MTT);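 note: relative to VEGF-stimulated control minus starvation-medium baseline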
Type: cell-based
Conditions: Library II, Y=S, crude reaction mixtures
Method: HUVEC Proliferation Assay
This assay determines the ability of a test compound to inhibit the growth factor-stimulated proliferation of human umbilical vein endothelial cells (“HUVEC”). HUVEC cells (passage 3-4, Clonetics, Corp.) were thawed into EGM2 culture medium (Clonetics Corp) in T75 flasks. Fresh EGM2 medium was added to the flasks 24 hours later. Four or five days later, cells were exposed to another culture medium (F12K medium supplemented with 10% fetal bovine serum (FBS), 60 μg/mL endothelial cell growth supplement (ECGS), and 0.1 mg/mL heparin). Exponentially-growing HUVEC cells were used in experiments thereafter. Ten to twelve thousand HUVEC cells were plated in 96-well dishes in 100 μl of rich, culture medium (described above). The cells were allowed to attach for 24 hours in this medium. The medium was then removed by aspiration and 105 μl of starvation media (F12K+1% FBS) was added to each well. After 24 hours, 15 μl of test agent dissolved in 1% DMSO in starvation medium or this vehicle alone was added into each treatment well; the final DMSO concentration was 0.1%. One hour later, 30 μl of VEGF (30 ng/mL) in starvation media was added to all wells except those containing untreated controls; the final VEGF concentration was 6 ng/mL. Cellular proliferation was quantified 72 hours later by MTT dye reduction, at which time cells were exposed for 4 hours MTT (Promega Corp.).
For screening compound library plates, one or two concentrations (one well per concentration) were employed, and the % inhibition was calculated by the following formula:
% inhibition=(control−test)÷(control−starvation)
% inhibition=(control-treated)/(control-starvation)×100

[1] = 0.5 mM (column head; text: nominal 0.5 nM)
[2] = 2 mM (column head; text: nominal 2 nM)

| SMILES | % inhibition of the proliferation of HUVEC [1] [%] | % inhibition of the proliferation of HUVEC [2] [%] |
| --- | --- | --- |
| Nc1ccc(CCNC(=O)c2ccccc2Sc2ccc3c(/C=C/c4ccccn4)n[nH]c3c2)cc1 | 32 | 31 |
| O=C(NCCCN1CCOCC1)c1ccccc1Sc1ccc2c(/C=C/c3ccccn3)n[nH]c2c1 | 5 | 14 |
| O=C(NCC1CCCO1)c1ccccc1Sc1ccc2c(/C=C/c3ccccn3)n[nH]c2c1 (stereo not shown) | 23 | 44 |
| O=C(NCCCN1CCCC1=O)c1ccccc1Sc1ccc2c(/C=C/c3ccccn3)n[nH]c2c1 | 25 | 35 |
| CN1CCCC1CCNC(=O)c1ccccc1Sc1ccc2c(/C=C/c3ccccn3)n[nH]c2c1 (stereo not shown) | 30 | 23 |
| O=C(NCCN1CCCCC1)c1ccccc1Sc1ccc2c(/C=C/c3ccccn3)n[nH]c2c1 | 5 | 19 |
| CC1CCCCN1CCCNC(=O)c1ccccc1Sc1ccc2c(/C=C/c3ccccn3)n[nH]c2c1 (stereo not shown) | 25 | 15 |
| O=C(NC1CCN(Cc2ccccc2)CC1)c1ccccc1Sc1ccc2c(/C=C/c3ccccn3)n[nH]c2c1 | 44 | 19 |
| N#CCNC(=O)c1ccccc1Sc1ccc2c(/C=C/c3ccccn3)n[nH]c2c1 | 18 | 40 |
| O=C(CNC(=O)c1ccccc1Sc1ccc2c(/C=C/c3ccccn3)n[nH]c2c1)NO | 5 | 9 |
| O=C(O)CNC(=O)c1ccccc1Sc1ccc2c(/C=C/c3ccccn3)n[nH]c2c1 | 8 | 23 |
| O=C(NCCS(=O)(=O)O)c1ccccc1Sc1ccc2c(/C=C/c3ccccn3)n[nH]c2c1 | 16 | 21 |
| CCC(O)CNC(=O)c1ccccc1Sc1ccc2c(/C=C/c3ccccn3)n[nH]c2c1 (stereo not shown) | 13 | 23 |
| CC(C)(CO)CNC(=O)c1ccccc1Sc1ccc2c(/C=C/c3ccccn3)n[nH]c2c1 | 8 | 22 |
| CCN1CC(NC(=O)c2ccccc2Sc2ccc3c(/C=C/c4ccccn4)n[nH]c3c2)CN1CC | 2 | −19 |
| CCN(CCNC(=O)c1ccccc1Sc1ccc2c(/C=C/c3ccccn3)n[nH]c2c1)c1cccc(C)c1 | 17 | 1 |
| N=C(N)CNC(=O)c1ccccc1Sc1ccc2c(/C=C/c3ccccn3)n[nH]c2c1 | 7 | −1 |
| O=C(NCCc1c[nH]cn1)c1ccccc1Sc1ccc2c(/C=C/c3ccccn3)n[nH]c2c1 | 23 | −32 |
| O=C(NCS(=O)(=O)O)c1ccccc1Sc1ccc2c(/C=C/c3ccccn3)n[nH]c2c1 | 2 | −3 |
| CN(CCCNC(=O)c1ccccc1Sc1ccc2c(/C=C/c3ccccn3)n[nH]c2c1)c1ccccc1 | 18 | 25 |
| NS(=O)(=O)c1ccc(CNC(=O)c2ccccc2Sc2ccc3c(/C=C/c4ccccn4)n[nH]c3c2)cc1 | 1 | 13 |
| O=C(NCCCN(CCO)CCO)c1ccccc1Sc1ccc2c(/C=C/c3ccccn3)n[nH]c2c1 | 4 | 4 |
| O=C(NCCc1ccncc1)c1ccccc1Sc1ccc2c(/C=C/c3ccccn3)n[nH]c2c1 | 18 | 22 |
| O=C(NO)c1ccccc1Sc1ccc2c(/C=C/c3ccccn3)n[nH]c2c1 | 7 | 25 |
| CNNC(=O)c1ccccc1Sc1ccc2c(/C=C/c3ccccn3)n[nH]c2c1 | 13 | 31 |
| COCCCNC(=O)c1ccccc1Sc1ccc2c(/C=C/c3ccccn3)n[nH]c2c1 | 26 | 31 |
| Cc1cc(NC(=O)c2ccccc2Sc2ccc3c(/C=C/c4ccccn4)n[nH]c3c2)on1 | 26 | 31 |

| SMILES | % inhibition of the proliferation of HUVEC [1] [%] | % inhibition of the proliferation of HUVEC [2] [%] |
| --- | --- | --- |
| Cc1cc(NC(=O)c2ccccc2Sc2ccc3c(/C=C/c4ccccn4)n[nH]c3c2)no1 | 28 | 14 |
| Nc1nc(NC(=O)c2ccccc2Sc2ccc3c(/C=C/c4ccccn4)n[nH]c3c2)n[nH]1 | −6 | 41 |
| O=C(NC1CCCCC1)c1ccccc1Sc1ccc2c(/C=C/c3ccccn3)n[nH]c2c1 | 12 | 76 |
| O=C(Nc1nncs1)c1ccccc1Sc1ccc2c(/C=C/c3ccccn3)n[nH]c2c1 | 44 | 28 |
| CC(C)CC(C)NC(=O)c1ccccc1Sc1ccc2c(/C=C/c3ccccn3)n[nH]c2c1 (stereo not shown) | 55 | 50 |
| CCCCCCNC(=O)c1ccccc1Sc1ccc2c(/C=C/c3ccccn3)n[nH]c2c1 | 21 | 90 |
| O=C(Nc1nnn[nH]1)c1ccccc1Sc1ccc2c(/C=C/c3ccccn3)n[nH]c2c1 | 21 | 64 |
| O=C(NCC1OCCO1)c1ccccc1Sc1ccc2c(/C=C/c3ccccn3)n[nH]c2c1 | 35 | 63 |
| CC(C)C(CO)NC(=O)c1ccccc1Sc1ccc2c(/C=C/c3ccccn3)n[nH]c2c1 (stereo not shown) | 21 | −5 |
| CCC(COC)NC(=O)c1ccccc1Sc1ccc2c(/C=C/c3ccccn3)n[nH]c2c1 (stereo not shown) | 1 | 65 |
| CCOCCCNC(=O)c1ccccc1Sc1ccc2c(/C=C/c3ccccn3)n[nH]c2c1 | 44 | 97 |
| CCCC(CO)NC(=O)c1ccccc1Sc1ccc2c(/C=C/c3ccccn3)n[nH]c2c1 (stereo not shown) | 44 | 40 |
| COC(CNC(=O)c1ccccc1Sc1ccc2c(/C=C/c3ccccn3)n[nH]c2c1)OC | 47 | 89 |
| CSCCCNC(=O)c1ccccc1Sc1ccc2c(/C=C/c3ccccn3)n[nH]c2c1 | 44 | 100 |
| N#CCONC(=O)c1ccccc1Sc1ccc2c(/C=C/c3ccccn3)n[nH]c2c1 | 16 | 2 |
| CS(=O)(=O)NNC(=O)c1ccccc1Sc1ccc2c(/C=C/c3ccccn3)n[nH]c2c1 | 9 | 1 |
| CCn1nccc1NC(=O)c1ccccc1Sc1ccc2c(/C=C/c3ccccn3)n[nH]c2c1 | 26 | 2 |
| Cc1cc(NC(=O)c2ccccc2Sc2ccc3c(/C=C/c4ccccn4)n[nH]c3c2)n(C)n1 | 39 | 13 |
| NC(=O)NNC(=O)c1ccccc1Sc1ccc2c(/C=C/c3ccccn3)n[nH]c2c1 | 19 | 5 |
| O=C(NCCCO)c1ccccc1Sc1ccc2c(/C=C/c3ccccn3)n[nH]c2c1 | 24 | 31 |
| Cc1noc(NC(=O)c2ccccc2Sc2ccc3c(/C=C/c4ccccn4)n[nH]c3c2)c1C | 15 | 36 |
| CC1CCCC(NC(=O)c2ccccc2Sc2ccc3c(/C=C/c4ccccn4)n[nH]c3c2)C1 (stereo not shown) | 69 | 59 |
| CC1CCC(NC(=O)c2ccccc2Sc2ccc3c(/C=C/c4ccccn4)n[nH]c3c2)CC1 (stereo not shown) | −11 | 42 |
| O=C(NNCC(F)(F)F)c1ccccc1Sc1ccc2c(/C=C/c3ccccn3)n[nH]c2c1 | 16 | 42 |
| Cc1csc(NC(=O)c2ccccc2Sc2ccc3c(/C=C/c4ccccn4)n[nH]c3c2)n1 | 15 | 95 |
| Cc1cnc(NC(=O)c2ccccc2Sc2ccc3c(/C=C/c4ccccn4)n[nH]c3c2)s1 | 20 | 92 |
